Results on one compound are retold here after US8912144B2, “Method for treating stroke via administration of NEP1-40 and inosine” (Children's Medical Center Corporation, priority 2003, dated 2014).

“Also recorded” adds a separate entry of the source.

Holding throughout (assay type): in vivo, rat
Assay [1] relates to sensorimotor cortex infarct. In words: Lesion size / stroke volume after photothrombotic focal ischemia. The conditions noted are these: 4 weeks treatment after focal ischemia. As to the method: All procedures were carried out in accordance with NIH Guidelines with the approval of Children's Hospital Animal Care and Use Committee. Unilateral in-farcts were induced in the sensorimotor cortex of adult Sprague-Dawley rats (275-300 g; Charles River Laboratories, Wilmington, Mass.) using the photothrombotic model of focal ischemia (Markgraf et al., 1993). Briefly, rats were anesthetized with a combination of ketamine (75 mg/kg) and Domitor (medetomidine; 0.5 mg/kg) and a 15 mm skin incision was made at the midline rostral to the posterior suture. A craniotomy was performed over the sensorimotor cortex using a hand-held drill to open a window that spanned medio-laterally between the sagittal sinus and temporal ridge, and rostro-caudally between Bregma +2.5 mm and Bregma −3.5 mm. […]
Sections through the telencephalon were cut at 10 μm, mounted on slides, and stained with Crystal Violet to determine the extent of the lesions. […] The area of the injured and uninjured hemisphere of each section was determined using NIH Image-J software. Lesion area was determined by subtracting the area of tissue remaining in the injured hemisphere from that in the uninjured hemisphere in sections spaced 250 μm apart spanning the full rostrocaudal extent of the lesion. […]

Assay [2] concerns activated caspase-3. As to the kind of experiment: Activated caspase-3 profiles at the periphery of the stroke. The conditions noted are these: standardized area on the periphery of the stroke. On the procedure:
A photothrombotic stroke model was used to generate unilateral ischemic lesions centered in the forelimb motor area of the cortex. The infarct area was determined using stereotaxic coordinates and was verified by histological analysis. Lesions were restricted to one hemisphere and included the caudal forelimb area of the primary motor cortex along with varying amounts of adjacent cortex (FIG. 10A and FIGS. 15 and 16). Lesion size varied among animals in each group, but there were no systematic between-group differences (lesion size [in pixels]=85.4±8.2 d [mean±S.E.M] for the saline-treated group and 81.1±8.6 for the inosine-treated group: difference not significant). […] This conclusion is further supported by the absence of any difference between inosine- and saline-treated cases in the number and size of profiles expressing activated caspase-3, as quantified focally in a standardized area on the periphery of the stroke (Caspase-3 profiles in saline-treated group=11.8±1.1, and in inosine treated group=11.9±1.5).

Assay [3] can be described thus: Skilled forelimb-reaching (food pellet retrieval) task after stroke. The conditions noted are these: for food pellet retrieval with impaired paw, % of baseline: long-term study. On the procedure:
All procedures were carried out in accordance with NIH Guidelines with the approval of Children's Hospital Animal Care and Use Committee. Unilateral in-farcts were induced in the sensorimotor cortex of adult Sprague-Dawley rats (275-300 g; Charles River Laboratories, Wilmington, Mass.) using the photothrombotic model of focal ischemia (Markgraf et al., 1993). Briefly, rats were anesthetized with a combination of ketamine (75 mg/kg) and Domitor (medetomidine; 0.5 mg/kg) and a 15 mm skin incision was made at the midline rostral to the posterior suture. A craniotomy was performed over the sensorimotor cortex using a hand-held drill to open a window that spanned medio-laterally between the sagittal sinus and temporal ridge, and rostro-caudally between Bregma +2.5 mm and Bregma −3.5 mm. The photosensitive dye Rose Bengal was injected into the femoral vein, and a fiber-optic cable connected to a xenon light source was centered over the craniotomy, focusing light directly on the exposed region of the brain for 30 minutes. A green filter fitted over the bulb restricted illumination to ˜525 nm, a wavelength that excites Rose Bengal and causes it to release free radical species. The subsequent damage to endothelial cells in exposed portions of the cortical vasculature causes platelet aggregation, resulting in severe focal ischemia. […] Control animals were generated using the same surgical procedure but without photo-activation of Rose Bengal. Animals with strokes were randomly assigned to receive a continuous infusion of either saline (0.9%, Baxter Scientific; n=12), inosine (50 mM in saline, Sigma-Aldrich Co., St. Louis, Mo.; n=12), NEP1-40 (500 μM in 2.5% DMSO/97.5% saline; n=12), or inosine +NEP1-40 (n=12) into the cisterna magna using osmotic minipumps (0.25 μl/h, Alzet model 2004, Durect Corpora-tion, Palo Alto, Calif.). In addition to these, a separate set of animals with the same 4 groups (n=12 in each) was created for a long-term behavioral study. Because CSF drug concentrations presumably require several hours to achieve steady-state levels when delivered via slow-releasing osmotic pumps, all animals received a 25 μl intraventricular bolus of the appropriate agent prior to pump placement. Pumps were tucked between the shoulder blades and infusion needles were secured onto the cranium with a silicon-based glue. The incision was closed with silk sutures and cleaned with betadine and ethanol pads. For 72 hours following surgery, animals received twice-daily, subcu-taneous injections of Buprenex (buprenorphine; Reckitt Benkiser Pharmaceuticals Inc., Richmond, Va.) for pain management.
In animals in which both behavioral testing and anatomical tracing was performed, animals were tested at 7, 14, 21, and 28 days after surgery, whereas in the long-term behavioral study, minipumps were removed after 4 weeks and testing was continued weekly for another 4 weeks. All testing was done by an experimenter blind to the animals' treatments. A skilled forelimb-reaching task was used to test functional recovery after stroke. The task requires the rat to reach with either paw through a narrow slit in a Plexiglas box, grasp a banana-flavored food pellet (Bio-Serv, Inc., Frenchtown, N.J.) from a platform, and bring it successfully to the mouth (Allred and Jones, 2004; Luke et al., 2004). Three days prior to and during training, animals were maintained on a restricted diet of banana-flavored pellets to remove novelty-induced hesitation and to increase motivation. Rats were trained 30-60 minutes per day with each paw for two weeks or until they reached a baseline performance of 20-30 successful reaches in a two-minute period. At the end of the training period but prior to surgery, each animal was tested for the number of pellets it successfully grasped and ate in a two-minute trial, making certain that animals were motivated and stress-free. […]

Assay [4] in a line: Basso-Beatty-Bresnahan (BBB) locomotor test after dorsal hemisection of the spinal cord. As to conditions: i.c.v. (50 mM, 0.25 μl/hour) or i.v. (260 mM, 10 μl/hour) for 4 weeks. As to the method:
To test the effects of inosine on spinal cord injury, the dorsal half of the spinal cord in rats was transected, severing the descending CST and other pathways. CST loss severely disrupted fine, skilled behaviors. Inosine was then administered either intra-cerebroventricularly (50 mM, 0.25 μl/hour) or intravenously (260 mM, 10 μl/hour) for 4 weeks. […] Complete transection of the corticospinal tract was verified histologically. The effectiveness of inosine was clinically relevant, since it avoids the risk of intracerebral infection.

As for `OC[C@H]1O[C@@H](n2cnc3c(O)ncnc32)[C@H](O)[C@@H]1O` [inosine], the “lesion size (mean±S.E.M)” value in assay [1] is reported as 81.1±8.6 pixels. In assay [2], this compound came in with a Caspase-3 profiles of 11.9±1.5. Moreover, the “food pellet retrieval with impaired paw, outcome in words” value is reported as “superior to that of controls at 1 week” in assay [3] (4-week study); “significantly better than that of saline-treated controls from week 2 on” in assay [3] (eight-week (long-term) study); “strongly enhanced the effect of NEP1-40” in assay [3] (eight-week (long-term) study, listed as Inosine). Further, the “food pellet retrieval with impaired paw, % of baseline” value is about 80% in assay [3] (week eight (4 weeks after pump removal)) and about 70% in assay [3] (week four). Further, the “performance with the unaffected (unimpaired) paw” value in assay [3] (paw ipsilateral to the stroke) is “performed normally; also recorded: No differences were detected”. Moreover, in assay [3] (week 4 after stroke, 4-week study), the “food pellet retrieval with impaired paw, percentage of baseline (pre-operative) level” value is reported as “approximately 80%”. For the same compound, in assay [4], the “performance on BBB test for general locomotor activity” value is “enhanced performance; also recorded: returned to near-normal level of performance”.
